The results in this text go back to ChEMBL document CHEMBL1142185, “Posaconazole enhances the activity of amphotericin B against Aspergillus hyphae in vitro” (2007).

In brackets after ≈: the same amount, converted by molar mass.

A word on the MIC90: it is the lowest concentration that inhibits either 90% of growth or 90% of the strains tested, depending on the study. A higher MIC90 goes with lower susceptibility.

Format in all cases: functional
For assay [1], the system named is Aspergillus flavus. Kind of assay: Antifungal activity against Aspergillus flavus conidia.
Assay [2] has as its system Aspergillus fumigatus. Kind of assay: Antifungal activity against Aspergillus fumigatus conidia.
In assay [3] the test system is Aspergillus terreus. Kind of assay: Antifungal activity against Aspergillus terreus hyphae.
The test system of assay [4] is Aspergillus fumigatus. Kind of assay: Antifungal activity against Aspergillus fumigatus hyphae.
Assay [5] relates to Aspergillus terreus. Put plainly: Antifungal activity against Aspergillus terreus conidia.
Assay [6] deals with Aspergillus niger. Kind of assay: Antifungal activity against Aspergillus niger conidia.
The test system of assay [7] is Aspergillus niger. Kind of assay: Antifungal activity against Aspergillus niger hyphae.
Assay [8] relates to Aspergillus flavus. Kind of assay: Antifungal activity against Aspergillus flavus hyphae.

For `C[C@@H]1[C@H](O)[C@@H](C)/C=C/C=C/C=C/C=C/C=C/C=C/C=C/[C@H](O[C@@H]2O[C@H](C)[C@@H](O)[C@H](N)[C@@H]2O)C[C@@H]2O[C@](O)(C[C@@H](O)C[C@@H](O)[C@H](O)CC[C@@H](O)C[C@@H](O)CC(=O)O[C@H]1C)C[C@H](O)[C@H]2C(=O)O` [AMPHOTERICIN B], the MIC90 worked out at 1.25 µg/mL (≈ 1.35 µM) in assay [1]; 0.625 µg/mL (≈ 0.676 µM) in assay [2]; 5 µg/mL (≈ 5.41 µM) in assay [3]; 2.5 µg/mL (≈ 2.71 µM) in assay [4]; 2.5 µg/mL (≈ 2.71 µM) in assay [5]; 1.25 µg/mL (≈ 1.35 µM) in assay [6]. Moreover, the figures for the MIC90 in assay [7] and in assay [8] were 5 µg/mL (≈ 5.41 µM) and 2.5 µg/mL (≈ 2.71 µM), respectively.
With `CC[C@@H]([C@H](C)O)n1ncn(-c2ccc(N3CCN(c4ccc(OC[C@@H]5CO[C@@](Cn6cncn6)(c6ccc(F)cc6F)C5)cc4)CC3)cc2)c1=O` [POSACONAZOLE], the MIC90 is 0.125 µg/mL (≈ 0.178 µM) in assay [1]; 0.125 µg/mL (≈ 0.178 µM) in assay [2]; 1 µg/mL (≈ 1.43 µM) in assay [3]; 0.5 µg/mL (≈ 0.713 µM) in assay [4]; 0.25 µg/mL (≈ 0.357 µM) in assay [5]; 0.25 µg/mL (≈ 0.357 µM) in assay [6]. The figures for the MIC90 in assay [7] and in assay [8] were 1 µg/mL (≈ 1.43 µM) and 0.5 µg/mL (≈ 0.713 µM), respectively.
Regarding `C[C@@H](c1ncncc1F)[C@](O)(Cn1cncn1)c1ccc(F)cc1F` [VORICONAZOLE], the MIC90 in assay [1] turned out to be 0.5 µg/mL (≈ 1.43 µM); in assay [2], 0.125 µg/mL (≈ 0.358 µM); in assay [3] it was 1 µg/mL (≈ 2.86 µM); in assay [4] it was 1 µg/mL (≈ 2.86 µM); in assay [5] it was 0.5 µg/mL (≈ 1.43 µM); in assay [6], 0.5 µg/mL (≈ 1.43 µM). Also, the MIC90 in assay [7] and in assay [8] was 2 µg/mL (≈ 5.73 µM) throughout.
